Assay results as given in patent publication US20260027116A1, “Methods of Treating Chronic Graft-Versus-Host Disease Following Allogeneic Hematopoietic Stem Cell Transplantation” (Kadmon Corporation, LLC, priority 2022, published 2026).

How the values were obtained:
P-gp = P-gp (Homo sapiens, UniProt P08183); experiment: transporter substrate in vitro; assay type: in vitro ADME
[1] = Example 1: plasma pharmacokinetics (Cmax, Tmax, AUC0-6 hr) of belumosudil and metabolites; assay type: in vivo, human; conditions: for AUC0-6 hr, Geometric Mean (Geometric Coefficient of Variation): plasma
Method: Cmax was the maximum observed plasma concentration, obtained by a non-compartmental analysis. […] Timeframe: Cycles 1 and 2: pre-dose (0 hour), 1, 2, 3, 4, 5, and 6 hours post-dose on Day 1. […] Here, ‘number analyzed’=participants with available data for each specified category.
Tmax was defined as time to reach maximum observed plasma concentration, obtained by a non-compartmental analysis. […] Timeframe: Cycles 1 and 2: pre-dose (0 hour), 1, 2, 3, 4, 5, and 6 hours post-dose on Day 1. Analysis was performed on PK population. Here, ‘number analyzed’=participants with available data for each specified category.
AUC0-6 hr was defined as area under the plasma concentration versus time curve from time 0 to 6 hours post-dose, obtained by a non-compartmental analysis from the concentration-time data. […] Timeframe: Cycles 1 and 2: pre-dose (0 hour), 1, 2, 3, 4, 5, and 6 hours post-dose on Day 1. Analysis was performed on PK population. Here, ‘number analyzed’=participants with available data for each specified category.

Sequence of P-gp (P08183 whole entry): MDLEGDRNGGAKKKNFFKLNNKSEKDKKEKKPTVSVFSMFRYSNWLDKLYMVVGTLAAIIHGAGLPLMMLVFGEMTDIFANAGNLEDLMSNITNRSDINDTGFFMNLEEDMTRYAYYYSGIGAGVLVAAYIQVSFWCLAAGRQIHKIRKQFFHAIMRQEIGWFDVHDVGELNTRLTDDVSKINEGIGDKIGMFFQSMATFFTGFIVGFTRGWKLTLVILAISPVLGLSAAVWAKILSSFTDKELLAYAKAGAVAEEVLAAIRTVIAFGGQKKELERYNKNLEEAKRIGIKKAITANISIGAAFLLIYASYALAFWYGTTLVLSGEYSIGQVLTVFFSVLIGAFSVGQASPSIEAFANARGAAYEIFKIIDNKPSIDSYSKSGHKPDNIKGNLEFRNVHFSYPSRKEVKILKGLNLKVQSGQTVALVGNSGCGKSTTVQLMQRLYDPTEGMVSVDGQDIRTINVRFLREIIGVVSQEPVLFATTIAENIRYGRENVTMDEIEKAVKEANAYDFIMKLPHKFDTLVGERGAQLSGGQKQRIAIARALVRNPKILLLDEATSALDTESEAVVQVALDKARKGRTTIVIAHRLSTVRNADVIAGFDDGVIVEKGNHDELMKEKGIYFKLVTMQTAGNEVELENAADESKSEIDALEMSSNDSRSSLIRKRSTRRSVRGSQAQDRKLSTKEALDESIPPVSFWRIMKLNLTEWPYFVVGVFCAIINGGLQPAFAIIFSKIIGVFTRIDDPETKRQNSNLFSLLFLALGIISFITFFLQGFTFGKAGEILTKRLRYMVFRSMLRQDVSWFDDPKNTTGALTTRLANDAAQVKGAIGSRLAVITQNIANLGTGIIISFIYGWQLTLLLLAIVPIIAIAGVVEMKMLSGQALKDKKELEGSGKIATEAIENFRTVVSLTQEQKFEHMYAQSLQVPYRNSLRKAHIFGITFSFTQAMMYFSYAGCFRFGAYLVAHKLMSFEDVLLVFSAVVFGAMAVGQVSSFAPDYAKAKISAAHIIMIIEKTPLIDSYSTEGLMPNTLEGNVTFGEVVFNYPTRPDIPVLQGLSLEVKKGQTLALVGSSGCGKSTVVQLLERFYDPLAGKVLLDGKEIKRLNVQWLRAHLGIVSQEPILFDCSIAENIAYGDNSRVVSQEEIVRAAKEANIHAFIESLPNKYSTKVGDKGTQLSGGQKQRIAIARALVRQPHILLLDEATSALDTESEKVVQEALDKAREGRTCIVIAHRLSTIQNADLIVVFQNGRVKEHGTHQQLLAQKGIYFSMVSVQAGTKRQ

CC(C)NC(=O)COc1cccc(-c2nc(Nc3ccc4[nH]ncc4c3)c3ccccc3n2)c1 [Belumosudil, 2-{3-[4-(1H-indazol-5-ylamino)-2-quinazolinyl]phenoxy}-N-(propan-2-yl) acetamide]
P-gp substrate (P-gp): substrate of P-gp
Cmax, geometric mean (geometric CV) ([1]; Cycle 1 Day 1, Cohort 1, belumosudil 200 mg QD): 2500 nanograms per milliliter
Cmax, geometric mean (geometric CV) ([1]; Cycle 1 Day 1, Cohort 2, belumosudil 200 mg BID): 1400 nanograms per milliliter
Cmax, geometric mean (geometric CV) ([1]; Cycle 1 Day 1, Cohort 3, belumosudil 400 mg QD): 2960 nanograms per milliliter
Cmax, geometric mean (geometric CV) ([1]; Cycle 2 Day 1, Cohort 1, belumosudil 200 mg QD): 2020 nanograms per milliliter
Cmax, geometric mean (geometric CV) ([1]; Cycle 2 Day 1, Cohort 2, belumosudil 200 mg BID): 1890 nanograms per milliliter
Cmax, geometric mean (geometric CV) ([1]; Cycle 2 Day 1, Cohort 3, belumosudil 400 mg QD): 3270 nanograms per milliliter
AUC0-6 hr, Geometric Mean (Geometric Coefficient of Variation) ([1]; Belumosudil 200 mg BID, Cycle 1 Day 1): 4960 hours*nanograms per milliliter
AUC0-6 hr, Geometric Mean (Geometric Coefficient of Variation) ([1]; Belumosudil 200 mg BID, Cycle 2 Day 1): 7190 hours*nanograms per milliliter
AUC0-6 hr, Geometric Mean (Geometric Coefficient of Variation) ([1]; Belumosudil 200 mg QD, Cycle 1 Day 1): 8350 hours*nanograms per milliliter
AUC0-6 hr, Geometric Mean (Geometric Coefficient of Variation) ([1]; Belumosudil 200 mg QD, Cycle 2 Day 1): 7090 hours*nanograms per milliliter
AUC0-6 hr, Geometric Mean (Geometric Coefficient of Variation) ([1]; Belumosudil 400 mg QD, Cycle 1 Day 1): 11500 hours*nanograms per milliliter
AUC0-6 hr, Geometric Mean (Geometric Coefficient of Variation) ([1]; Belumosudil 400 mg QD, Cycle 2 Day 1): 12000 hours*nanograms per milliliter
